{"source": "patent US20090232909A1", "about": "“Method for determining physiological effects of hemoglobin” (priority 1999, published 2009)", "key": {"Hb": {"target": "Hb (Homo sapiens, UniProt P68871+P69905)", "experiment": "EPR of iron nitrosyl-Hb formed by limiting NO with variously oxygenated Hb", "assay_type": "biochemical", "parameters": "purchased Apex Bioscience (Research Triangle Park, N.C.)", "excerpt": "To investigate the reaction of NO with oxyHb, we begin by adopting the conventional viewpoint that: NO consumption involves a competition between the oxidation reaction (Eq. 1) and the adduct-forming addition reaction (Eq. 2); and that the specific rate constants for these reactions, namely kox and kadd, are independent of the degree of oxygen saturation (Y) of the hemes.\n[Fe(II)NO]/[NO]0=1−Y/[1−Y+κY] [4]\nHbA0 was obtained from Apex Bioscience (Research Triangle Park, N.C.). Buffer exchange was achieved by dialysis. Deoxygenation was performed by gas exchange with argon in a tonometer. NO was added from a stock solution prepared under ultrapure helium and purified across alkali and cold traps. Stock solutions of NO were prepared in phosphate buffered saline containing 100 μM DTPA, pH 7.4. NO injections were made via a gas tight Hamilton syringe with Teflon seal. The concentration of NO in stock solutions was assayed by electrode and by a Sievers 280 NO analyzer (Boulder Colo.).\nEPR spectroscopy was carried out with samples in 4-mm i.d. fused silica tubes, at 76° K, on a Varian E-9 spectrometer. UV-visible spectra were taken after NO addition. The sample was then placed in a deoxygenated EPR tube and plunged into liquid N2. EPR spectra of nitrosylHb or dinitrosyl iron complexes (DNICs) were recorded in a single 4-min. scan over 400 G on a Varian E-9 spectrometer operating at 9.274 GHz, with 10-mW microwave power, 10-20 G amplitude of field modulation at 100 kHz, and time constant of 0.250 sec. Spectra of high-spin metHb were recorded with a scan of 1000 G, 20 G modulation amplitude, time constant of 0.128 sec, under otherwise identical conditions. NitrosylHb was measured by double integration of EPR spectra and by comparison to EPR spectra of Hb(NO)4 standardized with UV-visible spectroscopy. The reproducibility of nitrosylHb measurements was estimated to be ±6% by repeated trials.\n(A) EPR spectra of iron-nitrosyl Hb derivatives formed by incubation of 19 μM NO with 393 μM Hb at various degrees of oxygen saturation in 10 mM phosphate buffer, pH 7.4. […]"}, "oxyHb": {"target": "T1, oxyHb (Homo sapiens, UniProt P68871+P69905)", "T1 construct": "purchased Apex Bioscience (Research Triangle Park, N.C.)", "experiment": "Nitrosyl content of normoxic oxyHb after exposure to NO, photolysis-chemiluminescence", "assay_type": "biochemical", "description": "Nitroso/nitrosyl derivatives of Hb were measured using a photolysis-chemiluminescence technique [6-fold excess HgCl2 over protein was added to displace S-nitrosothiol (SNO) (Stamler, J. S., et al., Science, 276:2034-2037, 1997)]. Samples were kept on ice for a period of 5 minutes to 2 hours before analyses. MetHb was monitored by UV-visible spectroscopy as the difference absorption above the linear baseline (600-700 nm), and EPR (below).\n(A) Nitrosyl content of oxyHb (10 mM phosphate 100 μM DTPA, pH 7.4) after exposure to 1.2 μM NO, as measured by photolysis-chemiluminescence (Stamler, J. S., et al., Science, 276:2034-2037, 1997). Nitrosyl yield increases as a function of Hb concentration (P<0.05). Solid symbols, absolute yield of NO bound to Hb (FeNO plus SNO); open symbols, percentage of NO added. Data shown are the average of 7 to 19 experiments±SE. (B) Standard difference spectra of metHb (solid line), deoxyHb (dotted line), and iron nitrosylHb (dashed line) vs. oxyHb. (C) Difference spectra generated from the exposure of NO to normoxic (≈99% oxygen saturation) Hb. NO was added (in 10 aliquots totaling 2.2 μM) to 33 μM Hb in 100 mM phosphate (solid line) or 10 mM phosphate (dotted line) or 10 mM phosphate plus 0.05% borate (dashed line). […] Specifically, spectra in C were fitted, by a least-squares process, to either the simple competition model or the cooperativity model without a mass balance constraint. Cooperativity is present if add increases above that reported in the literature, as a function of oxygen tension.\n(A) SOD increases the yield of NO bound to Hb. The experiments in FIG. 3A were repeated in the absence (solid line; 1.2 μM NO) or presence (dashed line; 1.5 μM NO) of 1, 190 units/ml of SOD, which enhances the yield of nitrosyl species to approximately 100% of the NO added. Similar nitrosyl yields were obtained by using stroma-free Hb (25 μM), which is enriched in endogenous SOD (open circle). Data shown are the average of five to nine experiments±SE. (B) EPR spectrum of a DNIC formed by exposure of oxyHb (≈99% sat; 3.93 mM) to NO (36 μM). (C)S-nitrosoHb and iron nitrosylHb formed by exposure of oxyHb (=99% sat., 48 μM) to NO (1.2 μM). SNO (hatched bar) and FeNO (solid bar) were measured by photolysis-chemiluminescence (Stamler, J. S., et al., Science, 276:2034-2037, 1997). Data shown are the average of 12 experiments±SE. (D) Measurement of intraerythrocytic S-nitrosoHb and iron nitrosylHb formed by exposure of oxygenated RBCs (mean [Hb], 25 μM) to 0.3 μM NO. Isolation of Hb and measurements were as previously described (Stamler, J. S., et al., Science, 276:2034-2037, 1997). Data are the mean of 12 experiments±SE."}}, "data": [{"smiles": "[N]=O", "note": "[NO, nitric oxide]", "values": [{"measurement": "decrease of K over the 0 to 80% range of oxygen saturation", "setting": "Hb; 10 mM phosphate", "result": 7, "unit": "fold"}, {"measurement": "decrease of K by extrapolation", "setting": "Hb; 10 mM phosphate, at 90% saturation", "result": 100, "unit": "fold"}, {"measurement": "K (κ = kox/kadd) from fit of Eq. 4", "setting": "Hb; 100 mM phosphate, pH 7.4, average of the two curves", "result": "1.40±0.06"}, {"measurement": "nitrosyl yield", "setting": "oxyHb; 1.2 μM NO added to 48 μM oxyHb", "result": "approximately 500 nM"}, {"measurement": "share of nitrosyl yield that is SNO", "setting": "oxyHb; 1.2 μM NO added to 48 μM oxyHb", "result": "≈ 80%"}, {"measurement": "nitrosyl yield relative to the [Hb]", "setting": "oxyHb; 1.2 μM NO, ≈99% O2 saturation, 10 mM phosphate", "result": "3 to 0.6", "unit": "%"}, {"measurement": "maximum yield of nitrosyl species", "setting": "oxyHb; 1.2 μM NO, ≈99% O2 saturation, 10 mM phosphate, increasing [Hb]", "result": "approximately 50 % of NO added"}, {"measurement": "nitrosyl yields under normoxic conditions", "setting": "oxyHb; heme vacancies only ≈1%", "result": "≤ 6 % of Hb"}]}]}
